# What was measured:
# AFD1 cells [1] = experiment: qRT-PCR gene expression after two passages on surface modified plate 4 with Rho kinase inhibitor; assay type: cell-based; details: AFD1 passaged twice on modified surface 4 versus control plates
# Method: Cells were passaged twice on surface modified plate 4 in the presence of either Y-27632 or H1152-glycyl and were tested for the expression of genes associated with pluripotency by qRT-PCR (FIG. 12). Expression of genes associated with and required for pluripotency (OCT4, NANOG, SOX2, TERT, and CRIPTO/TDGF) was maintained in AFD1 cells grown on modified surface 4 versus cells grown on control plates. […] This may have been due to increased expression of NANOG, which inhibits differentiation by suppressing expression of extra-embryonic ectoderm or trophoblast associated genes. Additionally, this decrease in expression of extra-embryonic ectoderm or trophoblast associated genes could occur through differential adhesion and proliferation of cells more pluripotent, and less differentiated, on modified surface 4 versus control plates.
# AFD1 cells [2] = experiment: Attachment / plating efficiency on surface modified plate 4 without feeder cells or adlayer; assay type: cell-based; details: surface modified plate 4, MEF conditioned media
# Method: The pluripotent stem cell line AFD1, was maintained in MEF conditioned media on Nunclon Delta™ plates treated with a 1:30 dilution of growth factor reduced MATRIGEL™ prior to study. Cells were dissociated from the surface for passage by 1 mg/ml dispase dissociation. AFD1 cells were then seeded onto untreated wells of surface modified plate 4 (6-well format). In parallel, AFD1 cells were also plated onto Nunclon Delta™ plates treated with 1:30 dilution of growth factor reduced MATRIGEL™ to provide as positive controls. In all treatments cells were maintained in MEF conditioned media. AFD1 cells seeded onto surface modified plate 4 did attach, however the attachment efficiency was much lower than on control plates (FIG. 11). […] Cells were thereafter maintained in a constant 10 μM Y-27632 concentration or a reduced 1 μM concentration of H1152-glycyl, respectively, with daily media change.
compound,measurement,setting,value
"Cc1cncc2cccc(S(=O)(=O)N3CCCN(C(=O)CN)C[C@@H]3C)c12.Cl.Cl [Clone H1152-glycyl, (S)-(+)-4-Glycyl-2-methyl-1-[(4-methyl-5-isoquinolinyl)sulfonyl]hexahydro-1H-1,4-diazepine dihydrochloride]","Expression of genes associated with and required for pluripotency (OCT4, NANOG, SOX2, TERT, and CRIPTO/TDGF)",AFD1 cells [1],maintained
same,"relative expression of AFP, HAND2, and GATA2 (spontaneous differentiation genes)",AFD1 cells [1],decreased significantly
same,plating efficiency of the cells,AFD1 cells [2]; 3 μM for the first 24 hours in culture,significantly increased
C[C@@H](N)[C@H]1CC[C@H](C(=O)Nc2ccncc2)CC1 [Clone Y-27632],"Expression of genes associated with and required for pluripotency (OCT4, NANOG, SOX2, TERT, and CRIPTO/TDGF)",AFD1 cells [1],maintained
same,"relative expression of AFP, HAND2, and GATA2 (spontaneous differentiation genes)",AFD1 cells [1],decreased significantly
same,plating efficiency of the cells,AFD1 cells [2]; 10 μM for the first 24 hours in culture,significantly increased
